Like-named read-outs stand apart in the source and are kept apart here. Where a SMILES comes first, the peptide text is derived from it. [ ]: non-standard residue; d: D form. Tpi = O=C(O)[C@@H]1Cc2c([nH]c3ccccc23)CN1; dTpi = O=C(O)[C@H]1Cc2c([nH]c3ccccc23)CN1
Key:
[1] = system: acetylcholine-induced writhing; experiment: Mouse acetylcholine-induced writhing test; format: in vivo; conditions: intrathecal, acetylcholine 3.2 mg./kg. i.p. five minutes after injection
Experimental: Male Swiss-Webster mice (18-24 g.) are divided into groups of 8-15 mice. A test compound in a vehicle or the vehicle alone is administered intrathecally in a volume of 5 μl by the method of Hylden and Wilcox (European Journal of Pharmacology, vol. 67, pp. 313-316, 1980) except that caudal cutaneous incision is not performed prior to injection. Five minutes after the injection a solution of acetylcholine (3.2 mg./kg., the approximate ED90) in 0.9% aqueous sodium chloride is administered intraperitoneally to each mouse. […] For test compounds which produce a graded dose-response ED50 values with 95% confidence limits are determined by probit analysis of the data.

[2] = target: T1, SP receptor (rat brain tissue) (Rattus norvegicus, UniProt P14600); experiment: Rat brain tissue 3H-SP competitive binding; conditions: for Kd: crude rat brain tissue, 3H-SP, read-out: Substance P Competitive Binding KD; for effect on 3H-SP binding: specificity and sensitivity of the binding assay, rat brain tissue
T1 construct: from tissue; host or cells: crude rat brain tissue
Experimental: Crude rat brain tissue is suspended in buffer containing protease inhibitors and calcium ions and magnesium ions and incubated under nitrogen atmosphere with ^3 H-SP and test compound. The bound SP is then separated from free SP by filtration and quantitated by liquid scintillation spectroscopy. This test meets the criteria of reversibility,saturability, sensitivity to known SP agonists and antagonists, and specificity for an SP receptor binding assay.
With regard to reversibility, addition of unlabelled SP causes a gradual decrease in bound ^3 H-SP, showing that SP is not irreversibly bound to the receptors in the tissue. With regard to saturability, the amount of bound ^3 H-SP in the preparation increases in direct proportion to the concentration of ^3 H-SP added until a saturation point is reached. […] With regard to sensitivity, known SP agonists and antagonists inhibit ^3 H-SP binding.
The results are expressed in terms of the equilibrium constant KD in nanomoles per liter (nM), which takes into account the concentration of ^3 H-SP.

[3] = system: Substance P effect in isolated guinea pig ileum longitudinal muscle; experiment: Guinea pig ileum test, Substance P agonist and antagonist effect; format: cell-based
Experimental: Strips of longitudinal muscle (derived from terminal ileum of adult male guinea pigs (Charles River, 400-600 g.) are mounted in 5-ml. organ baths containing oxygenated Krebs solution containing 1 μM each of atropine and pyrilamine maintained at 30°-33° C. and connected to isometric transducers. Following tissue equilibration and repeated washing (45-60 min.), SP or an appropriate reference agonist is added cumulatively to the bath and contractions of the tissue are recorded. The bath is washed thoroughly and 30-45 min. is allowed to elapse before construction of a second reference agonist curve to assure reproducibility of the responses. Test compounds are similarly evaluated for agonist activity up to a maximum concentration of 10-100 μM. Regression analysis of the linear portion of the log concentration-percent maximal response curves provides the EC50 (and 95% confidence limits), the standard measure of agonist potency. When appropriate, relative molar potency ratios are calculated (EC50 reference/ED50 test drug). Antagonist activity is examined by pretreating thoroughly washed tissues with test compound (using a standard 5-10 min. contact time), then constructing a cumulative dose-response curve to the reference agonist. The effects of several concentrations of test antagonist, pooled across separate experiments, provide dose-ratio (EC50 shift) data for a standard Schild plot analysis, with computation of the pA2.

gastric juice secretion = conditions: in vivo; cited from earlier work
[4] = Schild plot, 5-10 min. contact time, guinea pig ileum longitudinal muscle

T1 sequence (P14600 whole entry): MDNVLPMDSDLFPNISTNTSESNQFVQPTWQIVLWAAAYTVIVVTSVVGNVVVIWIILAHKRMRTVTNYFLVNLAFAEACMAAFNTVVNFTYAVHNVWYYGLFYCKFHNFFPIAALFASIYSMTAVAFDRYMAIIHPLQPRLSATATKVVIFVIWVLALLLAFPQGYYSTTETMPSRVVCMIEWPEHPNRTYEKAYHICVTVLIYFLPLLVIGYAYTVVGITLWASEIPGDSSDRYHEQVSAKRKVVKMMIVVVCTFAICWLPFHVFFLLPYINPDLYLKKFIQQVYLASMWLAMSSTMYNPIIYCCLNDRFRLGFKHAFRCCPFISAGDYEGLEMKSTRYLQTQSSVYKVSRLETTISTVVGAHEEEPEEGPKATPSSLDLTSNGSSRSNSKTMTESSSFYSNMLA

Compound	Kd [2]	Substance P Antagonist pA2 [3, 4]	further results
CSCC[C@H](NC(=O)[C@H](CC(C)C)NC(=O)[C@@H](Cc1c[nH]c2ccccc12)NC(=O)[C@H](Cc1ccccc1)NC(=O)[C@H]1Cc2c([nH]c3ccccc23)CN1)C(N)=O [Example 4, H--tpi--Phe--trp--Leu--Met--NH2] (H-[dTpi]F[dW]LM-NH2)	42 nM	6.4	ED50, protection against acetylcholine-induced writhing [1]: 0.7 μg/mouse
CSCC[C@H](NC(=O)[C@H](CC(C)C)NC(=O)[C@@H](Cc1c[nH]c2ccccc12)NC(=O)[C@H](Cc1ccccc1)NC(=O)[C@@H]1Cc2c([nH]c3ccccc23)CN1)C(N)=O [Example 5, H--Tpi--Phe--trp--Leu--Met--NH2] (H-[Tpi]F[dW]LM-NH2)	59 nM		
COc1cc(CNC(=O)CCCC/C=C/C(C)C)ccc1O [capsaicin, reference compound]			effect on 3H-SP binding [2]: do not affect
CC(C)C[C@H](NC(=O)[C@@H](Cc1c[nH]c2ccccc12)NC(=O)[C@H](Cc1ccccc1)NC(=O)[C@@H](Cc1c[nH]c2ccccc12)NC(=O)[C@@H]1CCCN1)C(=O)N[C@@H](Cc1ccccc1)C(N)=O [Example 2, H--Pro--trp--Phe--trp--Leu--Phe--NH2] (H-P[dW]F[dW]LF-NH2)	22 nM	6.4	
H--Tpi--Bpa--trp--Leu--Phe--NH2 H--Tpi--bpa--trp--Leu--Phe--NH2 (mixture of isomers) [Example 7, H--Tpi--Bpa--trp--Leu--Phe--NH2 H--Tpi--bpa--trp--Leu--Phe--NH2 (mixture of isomers)]		6.25	
Z--Tca--Met--Asp--Phe--NH2 [Tca-tetragastrin]			gastric juice stimulating activity (gastric juice secretion): having gastric juice stimulating activity
CC(C)C[C@H](NC(=O)[C@@H](Cc1c[nH]c2ccccc12)NC(=O)[C@H](Cc1ccccc1)NC(=O)[C@@H](Cc1c[nH]c2ccccc12)NC(=O)[C@@H]1CCCN1)C(N)=O [Example 3, H--Pro--trp--Phe--trp--Leu--NH2] (H-P[dW]F[dW]L-NH2)	35 nM	5.1	
CSCC[C@H](NC(=O)[C@H](CC(C)C)NC(=O)[C@@H](Cc1c[nH]c2ccccc12)NC(=O)[C@H](Cc1ccccc1)NC(=O)[C@H](N)Cc1c[nH]c2ccccc12)C(N)=O [Example 1, H--trp--Phe--trp--Leu--Met--NH2] (H-[dW]F[dW]LM-NH2)			EC50 [3]: > 1000 nM; Substance P agonist activity ([3]; guinea pig ileum, not quantified): Some agonist activity was noted
CC(C)C[C@H](NC(=O)[C@H]1Cc2c([nH]c3ccccc23)CN1C(=O)[C@H](Cc1ccccc1)NC(=O)[C@@H](Cc1c[nH]c2ccccc12)NC(=O)[C@@H]1CCCN1)C(=O)N[C@@H](Cc1ccccc1)C(N)=O [Example 6, H--Pro--trp--Phe--tpi--Leu--Phe--NH2] (H-P[dW]F[dTpi]LF-NH2)	39 nM	6.4	
CC(C)C[C@H](NC(=O)[C@@H](Cc1c[nH]c2ccccc12)NC(=O)[C@H](Cc1ccccc1)NC(=O)[C@H](N)Cc1c[nH]c2ccccc12)C(=O)N[C@@H](Cc1ccccc1)C(N)=O [Example 8, H--trp--Phe--trp--Leu--Phe--NH2] (H-[dW]F[dW]LF-NH2)			Substance P Antagonist pA2 [3]: 6.28
CC(C)C[C@H](NC(=O)[C@@H](Cc1c[nH]c2ccccc12)NC(=O)[C@H](Cc1ccccc1)NC(=O)[C@H]1Cc2c([nH]c3ccccc23)CN1)C(=O)N[C@@H](Cc1ccccc1)C(N)=O [Example 9, H--tpi--Phe--trp--Leu--Phe--NH2] (H-[dTpi]F[dW]LF-NH2)			Substance P Antagonist pA2 [3]: 6.65
NCC(CC(=O)O)c1ccc(Cl)cc1 (stereo not drawn) [baclofen, reference compound]			effect on 3H-SP binding [2]: do not affect

— US4839465A, “Di-(D-tryptophyl and/or tetrahydropyridoindolylcarbonyl)-containing peptide amides and process for preparation thereof” (Sterling Drug Inc., priority 1987, dated 1989)
